One molecule from patent publication US8951566B2, “Process for preparing products comprising stabilised actives and compositions comprising same” (priority 2011, dated 2015) can be followed below.

This assay is described as follows: Blood glucose of a diabetic patient switched from Metformin to sublingual Exenatide tablet. The assay is classed as in vivo, human. As to conditions: one diabetic patient; Exenatide 20 μg sublingual tablet once a day; FIGS. 1 and 2. As to the method: A diabetic patient who was undergoing treatment with Metformin switched to once a day treatment with a slow release 20 μg Exenatide sublingual tablet prepared in accordance with Example 2. The fasting glucose and plasma glucose levels were measured and are depicted in FIGS. 1 and 2.

`CN(C)C(=N)N=C(N)N` [Metformin]: the “blood glucose level / profile (fasting and 2 hours after a meal)” value is “erratic and difficult to control”.
